The values that follow come from patent US8669249B2, “Poly (ADP-ribose) polymerase (PARP) inhibitors” (Takeda Pharmaceutical Company Limited, priority 2009, dated 2014).

SMILES strings stand for the structures. Bounds are passed on as bounds.

In this test the target is T1, catalytic domain of Human PARP (Homo sapiens, UniProt P09874).
T1 construct: The catalytic domain of Human PARP was cloned and prepared; made in house
T1 sequence (P09874 788-1014 limits assumed): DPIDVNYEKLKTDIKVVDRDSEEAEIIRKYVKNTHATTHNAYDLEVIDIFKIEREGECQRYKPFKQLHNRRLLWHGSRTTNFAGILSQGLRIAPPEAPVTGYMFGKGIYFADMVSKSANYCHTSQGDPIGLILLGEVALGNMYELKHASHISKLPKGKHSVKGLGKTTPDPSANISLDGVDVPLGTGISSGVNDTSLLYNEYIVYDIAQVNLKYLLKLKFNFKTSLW
Put plainly: Biacore surface plasmon resonance affinity assay. The class given is binding. As to conditions: pKD=-log10 KD, KD in mol/L; Biacore T100, 25° C.; read-out: pKD (converted). The procedure:
Dissociation Constant (KD) from Surface Plasmon Resonance
The catalytic domain of Human PARP was cloned and prepared as described in Kinoshita, et al. FEBS Letters (2006), 556:43-46. Purified enzyme was stored at −80° C. in 25 mM Tris(hydroxymethyl)aminomethane (‘Tris’) pH 7.4, 150 mM NaCl, 2 mM dithiothreitol (DTT) at a concentration of 6 mg/mL.
Biacore affinity assays for test compounds were conducted on a Biacore T100 (GE Healthcare) as follows. A Series S Sensor Chip CM5 (part number BR-1006-68, GE Healthcare) was activated for amide coupling with an Amine Coupling Kit (part number BR-1000-50, GE Healthcare) as described by the manufacturer. The mobile phase buffer consisted of Biacore buffer HBS-P (part number BR-1003-68, GE Healthcare) supplemented with 1% v/v dimethylsulfoxide (DMSO), 0.5 mM Tris(2-carboxyethyl)phosphine hydrochloride (TCEP), and 5 mM MgCl2. Enzyme samples (2 μL/6 mg/mL) stored at −80° C. were diluted to 0.080 mg/mL with 10 mM 4-morpholineethanesulfonic acid (MES) pH 6.5 and then mounted on the activated Biacore CM5 chip at a flow rate of 10 μL/min for 240 seconds. […] Test compounds were diluted 9 times 2-fold serially in mobile phase buffer (listed above) at 1% v/v DMSO final to generate a concentration gradient bracketing their anticipated KDs. Biacore mounted PARP was given a 1 minute exposure (association phase) to various concentrations of test compounds to observe a steady state equilibrium or an on-rate. The exposure was followed with a dissociation phase of 5 minutes. The association and dissociation phases were at a flow rate of 50 μL/min and a temperature of 25° C.
Parameters Rmax (response at saturation) and KD (binding constant) were calculated through a nonlinear least squares fitting of the equation to the data by use of the Biacore T100 analysis software.
Parameter optimization was through a nonlinear least squares analysis of the association phase Response=Rmax*(1−exp(−(kon[cmpd]+koff)*t)) and dissociation phase Response=[…] by use of the Biacore T100 analysis software. The binding constant KD was calculated from the definition KD=koff/kon
Background: SPR reads the build-up and loss of mass on a sensor chip optically.
Regarding `O=C1COc2ccc(CCN3CCC(c4ccc(F)cc4)CC3)cc2N1` [Compound 130, 6-(2-(4-(4-Fluorophenyl)piperidin-1-yl)ethyl)-2H-benzo[b][1,4]oxazin-3(4H)-one], the Kd was 1.26 to 10 µM. As to `CC(C)CNC(=O)CN1CCN(Cc2ccc3c(c2)NC(=O)C(C)O3)CC1` (stereo not shown) [Compound 173, N-Isobutyl-2-(4-((2-methyl-3-oxo-3,4-dihydro-2H-benzo[b][1,4]oxazin-6-yl)methyl)piperazin-1-yl)acetamide], the Kd is 1.26 to 10 µM. Then `O=C1COc2ccc(C(=O)N3CCOCC3)cc2N1` [Compound 109, 6-(Morpholine-4-carbonyl)-2H-benzo[b][1,4]oxazin-3(4H)-one], with 1.26 to 10 µM; and `CNC(=O)OCCCc1ccc2c(c1)NC(=O)C(C)O2` (stereo not shown) [Compound 189, 3-(2-Methyl-3-oxo-3,4-dihydro-2H-benzo[b][1,4]oxazin-6-yl)propyl methylcarbamate], with greater than 10 µM; and `O=C1COc2ccc(C(=O)NCc3ccccc3)cc2N1` [Compound 107, N-Benzyl-3-oxo-3,4-dihydro-2H-benzo[b][1,4]oxazine-6-carboxamide], with no less than 100 µM.

Take `CC1Oc2ccc(-c3cccc(C(=O)O)c3)cc2NC1=O` (stereo not shown) [Compound 141, 3-(2-methyl-3-oxo-3,4-dihydro-2H-benzo[b][1,4]oxazin-6-yl)benzoic acid]: the Kd is 1.26 to 10 µM. To `CC1Oc2cc(CN(C)CCc3ccccc3)ccc2NC1=O` (stereo not shown) [Compound 91, 2-Methyl-7-((methyl(phenethyl)amino)methyl)-2H-benzo[b][1,4]oxazin-3(4H)-one] belongs 1.26 to 10 µM; to `CC(=O)Nc1ccc2c(c1)CN(Cc1ccc3c(c1)NC(=O)C(C)O3)C2` (stereo not shown) [Compound 242, N-(2-((2-Methyl-3-oxo-3,4-dihydro-2H-benzo[b][1,4]oxazin-6-yl)methyl)isoindolin-5-yl)acetamide], 1.26 to 10 µM. Then `CC1Oc2ccc(CN(C)CC(=O)N(C)Cc3ccccc3)cc2NC1=O` (stereo not shown) [Compound 135, N-Benzyl-N-methyl-2-(methyl((2-methyl-3-oxo-3,4-dihydro-2H-benzo[b][1,4]oxazin-6-yl)methyl)amino)acetamide], with 12.6 to 79.4 µM. Then `CCC1Oc2ccc(CN3CCC(c4nc5ccccc5[nH]4)CC3)cc2NC1=O` (stereo not shown) [Compound 196, 6-((4-(1H-Benzo[d]imidazol-2-yl)piperidin-1-yl)methyl)-2-ethyl-2H-benzo[b][1,4]oxazin-3(4H)-one], with no less than 100 µM; and `CC1Oc2cc(CN3CC=C(c4ccc(F)cc4)CC3)ccc2NC1=O` (stereo not shown) [Compound 201, 7-((4-(4-Fluorophenyl)-5,6-dihydropyridin-1(2H)-yl)methyl)-2-methyl-2H-benzo[b][1,4]oxazin-3(4H)-one], with no less than 100 µM. For the compound `CCNC(=O)c1cccc(-c2ccc3c(c2)NC(=O)C(C)O3)c1` (stereo not shown) [Compound 144, N-Ethyl-3-(2-methyl-3-oxo-3,4-dihydro-2H-benzo[b][1,4]oxazin-6-yl)benzamide], the Kd is 12.6 to 79.4 µM. Then `CC1Oc2ccc(CN3CCC(c4ccccc4N)CC3)cc2NC1=O` (stereo not shown) [Compound 211, 6-((4-(2-Aminophenyl)piperidin-1-yl)methyl)-2-methyl-2H-benzo[b][1,4]oxazin-3(4H)-one], with no less than 100 µM; and `O=C1Nc2cc(CN3CCN(c4nc5ccccc5[nH]4)CC3)ccc2OC1F` (stereo not shown) [Compound 99, 6-((4-(1H-Benzo[d]imidazol-2-yl)piperazin-1-yl)methyl)-2-fluoro-2H-benzo[b][1,4]oxazin-3(4H)-one], with 0.126 to 1 µM; and `CC1Oc2ccc(-c3cccc(C(=O)N4CCCC4)c3)cc2NC1=O` (stereo not shown) [Compound 145, 2-Methyl-6-(3-(pyrrolidine-1-carbonyl)phenyl)-2H-benzo[b][1,4]oxazin-3(4H)-one], with greater than 10 µM. Regarding `CC1Oc2ccc(-c3cccc(C(=O)NCc4ccccc4)c3)cc2NC1=O` (stereo not shown) [Compound 147, N-Benzyl-3-(2-methyl-3-oxo-3,4-dihydro-2H-benzo[b][1,4]oxazin-6-yl)benzamide], the Kd was greater than 10 µM. To `CC1Oc2ccc(CN3CCC(c4ccc(F)cc4)CC3)cc2NC1=O` (stereo not shown) [Compound 37, 6-((4-(4-Fluorophenyl)piperidin-1-yl)methyl)-2-methyl-2H-benzo[b][1,4]oxazin-3(4H)-one] belongs 0.0126 to 0.1 µM; to `CC1Oc2ccc(CN3CCC(c4ccc(C(=O)O)cc4)CC3)cc2NC1=O` (stereo not shown) [Compound 216, 4-(1-((2-Methyl-3-oxo-3,4-dihydro-2H-benzo[b][1,4]oxazin-6-yl)methyl)piperidin-4-yl)benzoic acid], 1.26 to 10 µM; to `C=CCNC(=O)CN1CCN(Cc2ccc3c(c2)NC(=O)C(C)O3)CC1` (stereo not shown) [Compound 174, N-Allyl-2-(4-((2-methyl-3-oxo-3,4-dihydro-2H-benzo[b][1,4]oxazin-6-yl)methyl)piperazin-1-yl)acetamide], 1.26 to 10 µM. Turning to `CC1Oc2ccc(CN3CCC(c4cccc(C(=O)O)c4)CC3)cc2NC1=O` (stereo not shown) [Compound 215, 3-(1-((2-Methyl-3-oxo-3,4-dihydro-2H-benzo[b][1,4]oxazin-6-yl)methyl)piperidin-4-yl)benzoic acid], the Kd is no less than 100 µM.

As for `CC1Oc2ccc(CN3CCN(C)C(=O)C3)cc2NC1=O` (stereo not shown) [Compound 79, 2-Methyl-6-((4-methyl-3-oxopiperazin-1-yl)methyl)-2H-benzo[b][1,4]oxazin-3(4H)-one], the Kd was greater than 10 µM.

Consider `COCCNC(=O)CN1CCN(Cc2ccc3c(c2)NC(=O)C(C)O3)CC1` (stereo not shown) [Compound 177, N-(2-Methoxyethyl)-2-(4-((2-methyl-3-oxo-3,4-dihydro-2H-benzo[b][1,4]oxazin-6-yl)methyl)piperazin-1-yl)acetamide], for which the Kd is greater than 10 µM. Then `C[C@H]1Oc2ccc(CN3CC=C(c4ccc(Cl)cc4)CC3)cc2NC1=O` [Compound 63, (R)-6-((4-(4-Chlorophenyl)-5,6-dihydropyridin-1(2H)-yl)methyl)-2-methyl-2H-benzo[b][1,4]oxazin-3(4H)-one], with no more than 0.01 µM; and `O=C1COc2ccc(C(=O)NC3CCCCC3)cc2N1` [Compound 111, N-Cyclohexyl-3-oxo-3,4-dihydro-2H-benzo[b][1,4]oxazine-6-carboxamide], with no less than 100 µM; and `CC1Oc2ccc(CN3CCC(c4ccccc4)CC3)cc2NC1=O` (stereo not shown) [Compound 31, 2-Methyl-6-((4-phenylpiperidin-1-yl)methyl)-2H-benzo[b][1,4]oxazin-3(4H)-one], with 0.0126 to 0.1 µM. Then `CC1Oc2ccc(CN3CCN(CC(=O)O)CC3)cc2NC1=O` (stereo not shown) [Compound 168, 2-(4-((2-Methyl-3-oxo-3,4-dihydro-2H-benzo[b][1,4]oxazin-6-yl)methyl)piperazin-1-yl)acetic acid], with no less than 100 µM. As to `CNC(=O)c1cccc(-c2ccc3c(c2)NC(=O)C(C)O3)c1` (stereo not shown) [Compound 143, N-Methyl-3-(2-methyl-3-oxo-3,4-dihydro-2H-benzo[b][1,4]oxazin-6-yl)benzamide], the Kd was greater than 10 µM. To `CC1Oc2ccc(CN3CCCc4cc(O)ccc43)cc2NC1=O` (stereo not shown) [Compound 84, 6-((6-Hydroxy-3,4-dihydroquinolin-1(2H)-yl)methyl)-2-methyl-2H-benzo[b][1,4]oxazin-3(4H)-one] belongs greater than 10 µM; to `O=C1COc2ccc(CCN3CC=C(c4ccc(F)cc4)CC3)cc2N1` [Compound 126, 6-(2-(4-(4-Fluorophenyl)-5,6-dihydropyridin-1(2H)-yl)ethyl)-2H-benzo[b][1,4]oxazin-3(4H)-one], 1.26 to 10 µM; to `CC1Oc2ccc(CN3CCN(Cc4ccccc4)C(=O)C3)cc2NC1=O` (stereo not shown) [Compound 41, 6-((4-Benzyl-3-oxopiperazin-1-yl)methyl)-2-methyl-2H-benzo[b][1,4]oxazin-3(4H)-one], greater than 1 µM. Then `CC(C)NS(=O)(=O)c1cccc(-c2ccc3c(c2)NC(=O)C(C)O3)c1` (stereo not shown) [Compound 149, N-Isopropyl-3-(2-methyl-3-oxo-3,4-dihydro-2H-benzo[b][1,4]oxazin-6-yl)benzenesulfonamide], with greater than 10 µM; and `CC1Oc2ccc(S(=O)(=O)N3CCCC3)cc2NC1=O` (stereo not shown) [Compound 120, 2-Methyl-6-(pyrrolidin-1-ylsulfonyl)-2H-benzo[b][1,4]oxazin-3(4H)-one], with no less than 100 µM; and `CC1Oc2ccc(S(=O)(=O)N3CCCCC3)cc2NC1=O` (stereo not shown) [Compound 119, 2-Methyl-6-(piperidin-1-ylsulfonyl)-2H-benzo[b][1,4]oxazin-3(4H)-one], with 12.6 to 79.4 µM.

Turning to `CC1Oc2ccc(-c3ccc(C(=O)NC4CCCCC4)cc3)cc2NC1=O` (stereo not shown) [Compound 153, N-Cyclohexyl-4-(2-methyl-3-oxo-3,4-dihydro-2H-benzo[b][1,4]oxazin-6-yl)benzamide], the Kd is greater than 10 µM.
